Measured values taken from paper PMC9610943, “Truncated Pleurocidin Derivative with High Pepsin Hydrolysis Resistance to Combat Multidrug-Resistant Pathogens” (Pharmaceutics, 2022).
Where no end group is shown, it is not given here.

Experiments:
[1] = test system: E. coli B2; format: cell-based
Procedure: (§1) The MICs of all drugs were determined by micro-broth dilution method according to CLSI 2018 guidelines. Briefly, a single colony of the bacterial strain was transferred to 1 mL of Mueller Hilton broth (MHB) and overnight at 37 °C and then 10 μL were cultured in a new 1 mL medium for 4 to 6 h, and then the bacterial culture at the logarithmic phase was diluted to 1 × 10^6 CFUs/mL. The assay was performed by adding 100 μL of each peptide solution at various concentrations (0.25 to 128 μg/mL) and 100 μL of diluted bacterial culture to different wells of a 96-well microtiter plate (Corning, NY, USA). After incubation at 37 °C for 16 to 18 h and then read its MIC value. MIC value is defined as the lowest drug concentration without visible bacteria.
(§2) Then, the antibacterial activity of the peptides affected by different temperatures and pH were determined according to the determination steps of MICs test.
(§3) In MHB medium, Na^+, K^+, Mg^2+ and Ca^2+ with the final concentrations of 10 mM, fetal bovine serum, plasma or DMEM medium (Hyclone, Logan, UT, USA) with the final concentrations of 10% was added, and then MIC values were measured to evaluate the effects of different cations, serum and plasma on the antibacterial activity of peptides.
(§4) The peptide was incubated with protease (pepsin, trypsin and papain) (Solarbio, Beijing, China) with a final concentration of 1 mg/mL at 37 °C for 1 h, then the mixture of peptide and protease was heated at 100 °C for 30 min, then centrifuged at 13,000× g for 30 min, and the supernatant was taken for MIC determination.

[2] = test system: MRSA T144; format: cell-based, Staphylococcus aureus
Procedure: as §1, §2, §3, §4

[3] = test system: MRSA T144; assay: microbe, parasite or virus in culture; format: cell-based, Staphylococcus aureus; conditions: T144
Procedure: (§5) S. aureus ATCC 29213, E. coli ATCC 25922, S. enteritidis ATCC 13076 and A. baumannii ATCC 19609 were obtained from the American Type Culture Collection (ATCC). The remaining strains used in the experiment were all preserved strains in our laboratory. All strains were cultured in nutrient broth overnight to the logarithmic phase at 37 °C prior to each experiment.
as §1

[4] = test system: MRSA 1530; assay: microbe, parasite or virus in culture; format: cell-based, Staphylococcus aureus; conditions: 1530
Procedure: as §5, §1

[5] = test system: S. aureus G16 (RIF^R); assay: microbe, parasite or virus in culture; format: cell-based; conditions: S. aureus G16 (RIF^R); micro-broth dilution CLSI 2018, MHB, 37 °C, 16 to 18 h
Procedure: as §5, §1

[6] = test system: E. coli 1F28 (tet(X4)); assay: microbe, parasite or virus in culture; format: cell-based; conditions: 1F28 (tet(X4))
Procedure: as §5, §1

[7] = test system: E. coli CP131 (mcr-3); assay: microbe, parasite or virus in culture; format: cell-based; conditions: CP131 (mcr-3)
Procedure: as §5, §1

[8] = test system: E. coli ATCC 25922; assay: microbe, parasite or virus in culture; format: cell-based; conditions: ATCC 25922
Procedure: as §5, §1

[9] = test system: E. coli G6 (blaNDM-5); assay: microbe, parasite or virus in culture; format: cell-based; conditions: G6 (blaNDM-5)
Procedure: as §5, §1

[10] = test system: P. aeruginosa (VIM + tmexCD1-torJ1); assay: microbe, parasite or virus in culture; format: cell-based; conditions: VIM + tmexCD1-torJ1
Procedure: as §5, §1

[11] = test system: E. coli B2 (blaNDM-5 + mcr-1); assay: microbe, parasite or virus in culture; format: cell-based; conditions: B2 (blaNDM-5 + mcr-1)
Procedure: as §5, §1

[12] = test system: A. baumannii ATCC 19609; assay: microbe, parasite or virus in culture; format: cell-based; conditions: ATCC 19609
Procedure: as §5, §1

[13] = test system: E. coli B3-1 (tet(X4)); assay: microbe, parasite or virus in culture; format: cell-based; conditions: B3-1 (tet(X4))
Procedure: as §5, §1

[14] = test system: E. coli C3 (blaNDM-1); assay: microbe, parasite or virus in culture; format: cell-based; conditions: C3 (blaNDM-1)
Procedure: as §5, §1

[15] = test system: E. coli G92 (mcr-1); assay: microbe, parasite or virus in culture; format: cell-based; conditions: G92 (mcr-1)
Procedure: as §5, §1

[16] = test system: S. aureus 215 (cfr + LZD^R); assay: microbe, parasite or virus in culture; format: cell-based; conditions: S. aureus 215 (cfr + LZD^R); micro-broth dilution CLSI 2018, MHB, 37 °C, 16 to 18 h
Procedure: as §5, §1

[17] = test system: E. faecalis A4 (VRE, VanA); assay: microbe, parasite or virus in culture; format: cell-based; conditions: A4 (VRE, VanA)
Procedure: as §5, §1

[18] = test system: S. enteritidis ATCC 13076; assay: microbe, parasite or virus in culture; format: cell-based; conditions: ATCC 13076
Procedure: as §5, §1

[19] = test system: S. aureus ATCC 29213; assay: microbe, parasite or virus in culture; format: cell-based; conditions: ATCC 29213
Procedure: as §5, §1

[20] = test system: P. aeruginosa PA14; assay: microbe, parasite or virus in culture; format: cell-based; conditions: PA14
Procedure: as §5, §1

[21] = test system: P. cibarius HNCF44W (blaNDM-1+ tet(X6)); assay: organism not typed; format: cell-based
Procedure: as §5, §1

GWKKFFKKWKHVWK [GK-4]
1 µg/mL: MIC after treatment at pH 2 ([1]; B2, 1 h, pH 2) | MIC after treatment at pH 4 ([1]; B2, 1 h, pH 4) | MIC after treatment at pH 8 ([1]; B2, 1 h, pH 8) | MIC after treatment at pH 10 ([1]; B2, 1 h, pH 10)
2 µg/mL: MIC after treatment at 121 °C ([1]; B2) | MIC in Plasma (10%) ([1]; B2) | MIC in presence of K^+ ([1]; B2) | MIC in presence of Na^+ ([1]; B2) | MIC, Control ([1]; B2) | MIC after Pepsin treatment ([1]; B2, 1 h) | MIC after treatment at 40 °C ([1]; B2, 1 h) | MIC after treatment at 60 °C ([1]; B2, 1 h) | MIC after treatment at 80 °C ([1]; B2, 1 h) | MIC after treatment at 100 °C ([1]; B2, 1 h) | MIC after treatment at pH 6 ([1]; B2, 1 h, pH 6) | MIC after treatment at pH 12 ([1]; B2, 1 h, pH 12) | MIC in DMEM (10%) ([2]; T144) | MIC in presence of Na^+ ([2]; T144) | MIC after treatment at 40 °C ([2]; T144, 1 h) | MIC after treatment at 60 °C ([2]; T144, 1 h) | MIC after treatment at 80 °C ([2]; T144, 1 h) | MIC [7] | MIC [11] | MIC [14]
4 µg/mL: MIC in DMEM (10%) ([1]; B2) | MIC in Serum (10%) ([1]; B2) | MIC after treatment at 121 °C ([2]; T144) | MIC in Plasma (10%) ([2]; T144) | MIC in presence of K^+ ([2]; T144) | MIC, Control ([2]; T144) | MIC after treatment at 100 °C ([2]; T144, 1 h) | MIC after treatment at pH 2 ([2]; T144, 1 h, pH 2) | MIC after treatment at pH 4 ([2]; T144, 1 h, pH 4) | MIC after treatment at pH 6 ([2]; T144, 1 h, pH 6) | MIC after treatment at pH 8 ([2]; T144, 1 h, pH 8) | MIC after treatment at pH 10 ([2]; T144, 1 h, pH 10) | MIC after treatment at pH 12 ([2]; T144, 1 h, pH 12) | MIC [3] | MIC [9] | MIC [12] | MIC [13] | MIC [15] | MIC [18] | MIC [19] | MIC [21]
8 µg/mL: MIC in Serum (10%) ([2]; T144) | MIC in presence of Mg^2+ ([2]; T144) | MIC [5] | MIC [8] | MIC [16]
32 µg/mL: MIC in presence of Mg^2+ ([1]; B2)
>128 µg/mL: MIC in presence of Ca^2+ ([1]; B2) | MIC after Papain treatment ([1]; B2, 1 h) | MIC after Trypsin treatment ([1]; B2, 1 h) | MIC in presence of Ca^2+ ([2]; T144) | MIC after Papain treatment ([2]; T144, 1 h) | MIC after Trypsin treatment ([2]; T144, 1 h)
16 µg/mL: MIC [4] | MIC [6] | MIC [10] | MIC [17] | MIC [20]
